Test results published in patent US9512178B2, “Neurogenic brain-derived neurotrophic factor peptides” (Research Foundation for Mental Hygiene, Inc., priority 2012, dated 2016).

Legend:
[1] = tested on: BDNF and TrkB; test: Induction of BDNF and TrkB expression after pre-treatment with CHX or K252a; type: cell-based, mouse; settings: two days of treatment
Method: (§1) Peptides were dissolved in water in serial dilutions of 10 mM, 1 mM, 100 μM and 10 μM from which the necessary amount was added directly to the culture medium to a final concentration of 0.05 μM, 1 μM, or 10 μM. The BDNF (Peprotech, NJ, USA) was used as a reference in concentrations of 20 ng/ml (0.79 nM) and 100 ng/ml (3.95 nM). Cycloheximide (CHX) (Sigma-Aldrich, St Louis, Mo., USA) was used for blocking protein synthesis. CHX original stock was 100 mg/ml (355.4 mM) in DMSO; from a second stock of 35.54 mM in DMSO, the dilutions were made to the final concentrations of 100 μM. The K252a (CALBIOCHEM/EMD) was used to inhibit the TrkB Receptor. From a stock of 100 μM in DMSO, K252a was diluted to a final working concentration of 200 nM. The E18 primary hippocampal cells were pre-treated with CHX or K252a 1 h prior to the addition of the peptides or BDNF and a time course of these treatments for 15 min, 60 min and 2 days was studied.
To evaluate whether the effect of B-5 and B-3 in induction of the expression of BDNF and TrkB was via the activation of the TrkB receptor and required signal transduction via TrkB and new protein synthesis, mouse embryonic E18 cultured hippocampal cells were pre-treated with the protein synthesis inhibitor, cycloheximide (CHX) or the Trk inhibitor K252a for 1 h, and then added Peptide B-5 at a concentration of 0.1 μM (the dose that gave the maximum induction of BDNF expression, FIGS. 5A and B) or BDNF 20 ng/ml as a positive control (FIG. 7C,D). A time course of these treatments was studied with Peptide B-5 or BDNF for 15 min, 60 min and two days.

[2] = target: T1, TrkB receptor (Mus musculus, UniProt P15209); test: TrkB phosphorylation (Tyr 706) and TrkB level in primary E18 hippocampal cells, with or without K252a; type: cell-based; settings: K252a pretreatment 1 h (200 nM), then BDNF or peptides B-5 or B-3 for 5 min
T1 construct: endogenous in cells; host or cells: primary hippocampal neurons from embryonic day 18 C57BL/6 mice
T1 sequence (P15209 32-821): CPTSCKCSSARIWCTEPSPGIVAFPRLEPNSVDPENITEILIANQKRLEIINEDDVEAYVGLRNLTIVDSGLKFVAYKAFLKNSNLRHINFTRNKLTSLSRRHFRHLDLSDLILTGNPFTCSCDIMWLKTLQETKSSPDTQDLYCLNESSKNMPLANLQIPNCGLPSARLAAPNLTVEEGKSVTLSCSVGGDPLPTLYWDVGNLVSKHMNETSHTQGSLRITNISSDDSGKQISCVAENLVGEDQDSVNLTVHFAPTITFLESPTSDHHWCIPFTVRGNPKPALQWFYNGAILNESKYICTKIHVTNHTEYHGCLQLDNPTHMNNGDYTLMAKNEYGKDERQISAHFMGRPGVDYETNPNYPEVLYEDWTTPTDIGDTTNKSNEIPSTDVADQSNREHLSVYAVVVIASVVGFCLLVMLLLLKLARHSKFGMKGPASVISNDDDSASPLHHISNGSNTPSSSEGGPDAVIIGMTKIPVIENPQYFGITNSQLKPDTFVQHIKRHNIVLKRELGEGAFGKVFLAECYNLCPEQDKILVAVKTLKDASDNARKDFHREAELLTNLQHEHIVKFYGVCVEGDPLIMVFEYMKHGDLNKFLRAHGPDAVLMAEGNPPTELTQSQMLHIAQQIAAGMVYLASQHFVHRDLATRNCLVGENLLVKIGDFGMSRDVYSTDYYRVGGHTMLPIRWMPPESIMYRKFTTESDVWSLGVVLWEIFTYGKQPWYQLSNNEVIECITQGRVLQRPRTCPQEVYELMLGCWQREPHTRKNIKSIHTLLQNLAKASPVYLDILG
Method: as §1
(§2) Following treatment in 6-well plates, cells were washed 2× in glucose buffered saline, GBS (5.4 mM KCl, 138 mM NaCl, 22 mM glucose, and 2 mM Na—KPO pH 7.2), and then lysed by 5 min incubation on ice in 100 or 150 μl of ice-cold RIPA buffer (PBS, 1% w/v NP-40 from Fisher Scientific, 0.1% w/v SDS, and 0.5% w/v sodium desoxycholate) containing 1 mM AEBSF (Gold Biotechnology, St. Louis, Mo., USA), 10 μg/ml aprotinin (Sigma-Aldrich, St. Louis, Mo., USA), and 20 μg/ml of leupeptin and pepstatin (US Biochemicals, Cleveland, Ohio, USA), and phosphatase inhibitors: NaF, Na orthovanadate, (3-glycerophosphate, and microcystein (Sigma-Aldrich, St. Louis, Mo., USA). Extracts were prepared by collecting and pooling a minimum of 2 wells by scraping, and lysates were centrifuged at 20,000×g for 10 min at 4° C. Protein concentration of each cell lysate was determined using the BCA kit (Thermo Scientific, Rockford, Ill., USA). The lysates (7.5-20 μg total protein) were separated on 10% SDS-PAGE gels (except for BDNF where 12% gels were employed) and transferred to 0.45 μm PVDF membrane (Pall, Pensacola, Fla., USA) for probing with antibodies as noted. Blots were blocked for 1 hr at 37° C. in 1×TBST (0.05% Tween 20 in TBS) containing 5% w/v blotting grade dry milk (Bio-rad, Hercules, Calif., USA), incubated in primary antibody overnight in blocking buffer at 4° C., washed 3×10 min in TBST at room temperature, followed by incubation with secondary antibody, i.e., peroxidase-conjugated anti-mouse or anti rabbit IgG (Jackson ImmunoResearch Laboratories, West Grove, Pa., USA) diluted in blocking buffer. Blots were washed 3×10 min in TBST and immunoreactive protein bands were visualized with enhanced chemiluminescence (ECL) reagents (Pierce, Rockford, Ill., USA). The ECL films of the blots were scanned and analyzed using Multi Gauge software version 3.0 (Fujifilm, Tokyo, Japan).
The following primary antibodies were used: rabbit polyclonal anti-NFM (1:1000; Chemicon/Millipore, Billerica, Mass., USA); mouse monoclonal anti-NeuN, clone A60 (1:500; Millipore, Billerica, Mass., USA); rabbit polyclonal anti-Tuj-1, (3—III-tubulin (Covance; 1:800, Emeryville, Calif., USA); mouse monoclonal SMI 52 to the adult isoforms of MAP-2, MAP2a,b (1:1000; Covance, Emeryvilly, Calif., USA); rabbit polyclonal anti-Synapsin I (1:2000; Stressgen, Farmingdale, N.Y., USA); rabbit monoclonal anti-PSD95 (1:1000; Cell signaling, Danvers, Mass., USA); anti tau 92e (1:10000); mouse monoclonal anti-BDNF (1:1000; Calbiochem, Gibbstown, N.J., USA); rabbit polyclonal anti-TrkB (total) (1:500; Santa Cruz Biotechnology, Santa Cruz, Calif., USA); rabbit polyclonal anti-pTrkB (Tyr706) (1:400; Santa Cruz Biotechnology, Santa Cruz, Calif., USA), TrkC (1:1000; Cruz Biotechnology, Santa Cruz, Calif., USA); and pTrkY490 (1:500; Upstate USA Inc., Charlottesville, Va., USA). For loading control, the blots were developed with rabbit polyclonal antibody to GAPDH (1:2000; Santa Cruz Biotechnology, Santa Cruz, Calif., USA). […]

[3] = tested on: E18 primary hippocampal neurons; test: Western blots of neuronal markers, densitometry; type: cell-based, mouse; settings: 5 days
Method: as §2
(§3) The following primary antibodies were used: rabbit polyclonal anti-NFM (1:1000; Chemicon/Millipore, Billerica, Mass., USA); mouse monoclonal anti-NeuN, clone A60 (1:500; Millipore, Billerica, Mass., USA); rabbit polyclonal anti-Tuj-1, (3—III-tubulin (Covance; 1:800, Emeryville, Calif., USA); mouse monoclonal SMI 52 to the adult isoforms of MAP-2, MAP2a,b (1:1000; Covance, Emeryvilly, Calif., USA); rabbit polyclonal anti-Synapsin I (1:2000; Stressgen, Farmingdale, N.Y., USA); rabbit monoclonal anti-PSD95 (1:1000; Cell signaling, Danvers, Mass., USA); anti tau 92e (1:10000); mouse monoclonal anti-BDNF (1:1000; Calbiochem, Gibbstown, N.J., USA); rabbit polyclonal anti-TrkB (total) (1:500; Santa Cruz Biotechnology, Santa Cruz, Calif., USA); rabbit polyclonal anti-pTrkB (Tyr706) (1:400; Santa Cruz Biotechnology, Santa Cruz, Calif., USA), TrkC (1:1000; Cruz Biotechnology, Santa Cruz, Calif., USA); and pTrkY490 (1:500; Upstate USA Inc., Charlottesville, Va., USA). For loading control, the blots were developed with rabbit polyclonal antibody to GAPDH (1:2000; Santa Cruz Biotechnology, Santa Cruz, Calif., USA).
To biochemically study the effect of BDNF peptides in inducing expression of neuronal markers, protein samples were recovered from cells treated with peptides B-5, B-4, B-3, or vehicle for five days. As a positive control, protein samples were collected from cells treated with BDNF at 20 ng/ml (0.79 nM) or 100 ng/ml (3.95 nM) (FIG. 3D, E). Western blots of the cell lysates were developed with antibodies to Synapsin I (presynaptic marker), PSD95 (postsynaptic marker), NeuN (late neuronal marker), NFM (early neuronal marker), MAP2 (dendritic marker), 0-IIItubulin (early neuronal marker), and tau 92e (axonal marker).

[4] = tested on: BDNF; test: BDNF expression, Western blot, 5 days treatment; type: cell-based, mouse; settings: vs control medium
Method: as §2, §3
To investigate the molecular mechanism by which the BDNF peptides promoted neurogenic/neurotrophic activities, the hippocampal primary cultured neurons were treated with the peptides or BDNF for five days and compared with the control medium treated cells.

[5] = tested on: mouse E18 primary hippocampal neurons; test: Toxicity of the peptides: phase contrast morphology and LDH assay, 5 days treatment; type: cell-based; settings: 1 μM
Text: To screen these peptides, primary neuronal cell cultures were used from embryonic day 18 (E18) C57BL/6 mouse hippocampus. At the fourth day in vitro (DIV), the culture medium was exchanged with the medium containing the peptides. The primary neuronal cultures were established as taught in the art (see, e.g., Cardenas-Aguayo Mdel, Santa-Olalla et al. 2003, hereby incorporate by reference). Briefly, C57BL/6 time pregnant E18 female mice from Charles River Labs were anesthetized and killed by cervical dislocation following our Institutional Animal Care and Use Committee (IACUC) regulations and approved protocol. Embryos were removed and placed in cold Hibernate A (available from Brain bits, Springfield, Ill., USA), and all of the following steps were performed in ice-cold Hibernate A, under a stereoscopic (dissection) microscope placed in a laminar flow hood. Fetal brains were removed carefully and fore brain were separated. Then, the hippocampus, including the cortex surrounding the area of the hippocampus, was dissected and cut into small pieces using microsurgical scissors. The cut tissue was transferred with number 5 forceps to 15 ml tubes containing 0.1% trypsin in Versene (Invitrogen Life Technologies, Grand Island, N.Y., USA) and incubated for 15 min at 37° C. followed by inactivation with 10% fetal bovine serum (FBS) in Neurobasal complete medium (Neurobasal Medium supplemented with 2×B-27, 0.30% glutamine, and penicillin/streptomycin 0.1 mg/ml and 0.1 U/ml respectively). All medium components were purchased from Invitrogen, Grand Island, N.Y., USA. […]
To study any toxic effect of the peptides, mouse E18 primary hippocampal neurons were treated with the five BDNF peptides individually for up to 5 days at different doses [5 nM, 25 nM, 50 nM (data not shown), 100 nM (0.1 μM), 1000 nM (1 μM), and 10,000 nM (10 μM)]. […] Accordingly, there was no significant change in the viability of cells treated with any of the peptides as evaluated by the lactate dehydrogenase (LDH) assay (see FIG. 2B). […]

[6] = tested on: primary E18 hippocampal cells; test: Rescue of H2O2-induced neurotoxicity (LDH assay); type: cell-based, mouse; settings: then treatment 24 h
Method: Evaluation of cell death and cell viability was performed using the LDH kit (Promega, Madison Wis., USA), following manufactures instructions. Percentages of cell death and cell viability were plotted separately.
In order to evaluate the potential neuroprotective effect of BDNF peptides, the primary E18 hippocampal cells were challenged with 0, 60, 80 and 100 μM H2O2 for 6 hours, and then cells were washed with culture medium and fresh culture medium was added containing the peptides B-5 or B-3 or BDNF or BDNF plus B-3 (see FIGS. 4A and 4B). After 24 hours, the cell viability was assayed by the LDH method.

[7] = phase III, amyotrophic lateral sclerosis, daily subcutaneous administration; cited from earlier work

For `C[C@@H]1C[C@@H]([C@H](O)CC2CC(=O)NC(=O)C2)C(=O)[C@@H](C)C1` [CHX, Cycloheximide, reference compound], the “block of the increase in expression of BDNF caused by BDNF peptides or BDNF” value ([1]; CHX pre-exposure 1 h (100 μM)) was “can be blocked”.
With `COC(=O)[C@@]1(O)C[C@H]2O[C@]1(C)n1c3ccccc3c3c4c(c5c6ccccc6n2c5c31)C(=O)NC4` [Peptide K252a, reference compound] the “inhibition of the phosphorylation of TrkB at Tyrosine 706” value [2] was “clear inhibition” and the “block of the increase in expression of BDNF caused by BDNF peptides or BDNF” value ([1]; K252a pre-exposure 1 h (200 nM)) was “can be blocked”.
For Ac-D-K-R-H-CONH2 [Peptide B-4], the “expression of NeuN (Western blot)” value ([3]; 0.1 μM) was “increased the expression of NeuN”, the “expression of PSD95 (Western blot)” value ([3]; 0.1 μM) was “significant increment” and the “level of tau (92e antibody, Western blot)” value [3] was “Neither BNDF nor peptides B-3, B-4 or B-5 had any significant effect”. The “expression of BDNF (Western blot)” value [4] was “induced the expression of BDNF”.
With Ac-R-R-G-E-CONH2 [Peptide B-1] the “cell death (LDH assay) vs vehicle treated cells” value [5] was “significant reduction in cell death”.
For “BDNF: Brain derived neurotrophic factor (Peprotech), used as a reference at 20 ng/ml and 100 ng/ml”, the “NFM expression (Western blot)” value ([3]; 20 ng/ml) was “increased NFM expression in a similar way”, the “expression of PSD95 (Western blot)” value ([3]; 20 ng/ml) was “increase” and the “NFM expression (Western blot)” value ([3]; 100 ng/ml) was “increased NFM expression in a similar way”. For the same compound, the “expression of PSD95 (Western blot)” value ([3]; 100 ng/ml) was “increase”, the “level of tau (92e antibody, Western blot)” value [3] was “Neither BNDF nor peptides B-3, B-4 or B-5 had any significant effect” and the “cell death (LDH)” value ([6]; 0 μM H2O2 6 h) was “not statistically significant”. The “cell viability (LDH)” value ([6]; 0 μM H2O2 6 h) was “increased cell viability significantly”, the “cell death (LDH)” value ([6]; 60 μM H2O2 6 h) was “some reduction in cell death” and the “cell viability (LDH)” value ([6]; 60 μM H2O2 6 h) was “increased cell viability significantly”. For the same compound, the “cell death (LDH)” value ([6]; 80 μM H2O2 6 h) was “not statistically significant”, the “cell death (LDH)” value ([6]; 100 μM H2O2 6 h) was “not statistically significant” and the clinical benefit [7] was “no clinical benefit”.
